# Results: patent US20260317328A1, “SMALL MOLECULES FOR ADOPTIVE T-CELL THERAPY (ACT) THROUGH ACTIVATION OF THE mTOR SIGNALLING PATHWAY, PROCESS FOR PREPARATION THEREOF” (COUNCIL OF SCIENTIFIC & INDUSTRIAL RESEARCH, priority 2023, published 2026)
# Legend:
# Plasma stability assay = type: in vitro ADME; settings: human, 37° C., 120 mins
# Description: 1 mM Stock of test compound was prepared from 10 mM initial stock solution of compounds by diluting 10 μL of 10 mM stock with 90 μL of DMSO. Then 10 μL of 1 mM stock was diluted with 90 μL of DMSO to give 100 μM concentration. The frozen plasma was thawed at room temperature and centrifuged at 1400 rpm at 4° C., for 15 minutes. Approximately 90% of the clear supernatant fraction was transferred to a separate tube and was used for the assay. Final working stock of 1 μM was prepared by diluting 3 μL of 100 μM with 297 μL of plasma. Plasma containing the test compound was incubated for 120 mins at 37° C. in shaker with 500 rpm. 50 μL of aliquot of sample at 0, 15, 30, 60 and 120 minutes were precipitated with 150 μL of acetonitrile containing internal standard and centrifuged at 4000 rpm at 4° C. for 20 minutes. 120 μL of supernatant was diluted with 120 μL of water and analyzed by LC-MS/MS.
# [1] = tested on: Human naïve CD8^+ T cells; experiment: EC50 for IFNγ production in human naïve CD8+ T cells; type: cell-based; settings: 72 hrs, doses 500 pM to 50 μM, N=3 for each dose
# Description: Human naïve CD8^+ T cells were sorted from PBMC and activated in presence of Comp 19 in the different doses (500 pM, 1 nM, 100 nM, 500 nM, 1 μM, 5 μM, 10 μM, 50 μM). After 72 hrs, activated CD8+ T cells were restimulated and stained for IFNγ production. Percent of CD8+ T cell producing IFNγ in the previously mentioned doses of Comp 19 was normalized to a vehicle control (DMSO) treated group. The optimum dosage of Comp 19 for inducing effector cytokine (IFNγ) production from CD8^+ T cells is 10 μM. […] (N=3 for each dose of Comp 19).
# Human peripheral blood mononuclear cells (PBMC) were obtained from fully anonymized whole blood bags (age & sex related information were not provided) collected from healthy volunteer blood donors at NRS Medical College & Hospital, Kolkata, India. […]
# (§1) Measurement of cytokine production: To assess IFN-γ and TNF-α secretion by intracellular cytokine staining, cells (0.2×10^6) were treated for 4 hours with restimulation cocktail containing phorbolmyristate acetate (50 ng ml^−1) and ionomycin (500 ng ml^−1), brefeldin A (to block anterograde protein transport). […] Next cells were washed with PBS, fixed for 20 min at 4° C. with fixation/permeabilization solution, washed with permeabilization buffer, finally stained for 30 min with anti-IFN-γ and anti-TNF-α mAb in dark at 4° C., washed with PBS and analyzed.
# CD8^+ T cells [2] = experiment: Effector cytokine (IFN-γ, TNF-α) production by activated CD8+ T cells; type: cell-based; settings: naïve T cells activated in presence of compound (FIG. 2B-E)
# Excerpt: Distinct T cell states require specific metabolic programs compatible to their functional demands. The transition between various T cell states is accompanied by active rewiring of cellular metabolism and epigenetic landscape. Oxidative phosphorylation is the main biochemical pathway that drives metabolism of naïve T cell. Upon activation, naïve T cells rapidly reprogram their metabolic networks to comply with the demands of robust clonal expansion and epigenetic remodeling. So, TCR activation and co-stimulation initiate a set of signaling cascades that collectively license a T cell to exit quiescence. […] So, we assessed glucose uptake level by activated CD8^+ T cells using fluorescent labeled deoxy-glucose analogue, 2NBDG. […]
# as §1
# [3] = Metabolic stability using human liver microsomes (HLM); type: in vitro ADME; settings: pH 7.4, read-out: % QH (Well stirred model)
# Description: 1 mM stock solution of test compound was prepared in DMSO and diluted with Acetonitrile:Water (1:1) to get a 100 μM working concentration. 100 mL of Milli Q water was added to K2HPO4 (1.398 g) and KH2PO4 (0.27 g) to get final pH 7.4 solution of potassium phosphate buffer. […] The above mixture was pre incubated for 15 minutes at 37° C. After pre incubation, 32.5 μL of the mixture was added to 17.5 μL of buffer, this was incubated for 60 minutes at 37° C. [60 min Without Cofactor (NADPH)]. 16.25 μL of the pre incubated mixture and 8.75 μL of cofactor was added to 150 μL of acetonitrile containing internal standard [0 min Sample]. 62 μL of cofactor was added to remaining pre incubation mixture [Incubation mixture]. 25 μL of incubation mixture at 0, 5, 15, 30, 60 min and 60 min without cofactor were precipitated with 150 μL of acetonitrile containing internal standard, vortexed and centrifuged at 4000 rpm at 4° C. for 20 minutes. 120 μL of supernatant was diluted with 120 μL of water and analyzed by LC-MS/MS [sample preparation].
# CD8^+ T cells [4] = experiment: Initial small molecule screening: intracellular cytokine staining of CD8+ T cells activated with each small molecule; type: cell-based, mouse
# Excerpt: To select the small molecule capable of inducing IFN-γ production in CD8^+ T cells, […] CD3^+ sorted naïve T cells were activated with each small molecule for 72 hrs followed by an intracellular cytokine staining.
# CD3^+ T cells were isolated from human peripheral blood by density-gradient (Ficoll gradient) centrifugation followed by a negative selection using Dynabeads Untouched Human T Cells Kit, resulting in a typically >90% pure CD3^+ T cell population.
# (§2) Purified naïve CD3^+ T cells were activated either in presence of Comp 19 ([…]) or vehicle (DMSO) with plate-bound anti-CD3 ([…]) and anti-CD28 ([…]) for 72 h in RPMI-1640 medium containing 10% FBS, 50 µM R-ME, 50 U/mL penicillin and […] streptomycin and 100 IUmL^−1 rIL-2.
# Measurement of cytokine production: To assess IFN-γ and TNF-α secretion by intracellular cytokine staining, cells (0.2×10^6) were treated for 4 hours with restimulation cocktail containing phorbolmyristate acetate (50 ng ml^−1) and ionomycin (500 ng ml^−1), brefeldin A (to block anterograde protein transport). Then cells were stained for surface markers and simultaneously labeled with Live/Dead Yellow Fluorescent Dye for 20 min at 4° C. Next cells were washed with PBS, fixed for 20 min at 4° C. with fixation/permeabilization solution, washed with permeabilization buffer, finally stained for 30 min with anti-IFN-γ and anti-TNF-α mAb in dark at 4° C., washed with PBS and analyzed.
# EL4-OVA tumors = experiment: Adoptive transfer of OT1 T cells into mice bearing EL4-OVA tumors; type: in vivo, mouse
# Description: Given the functional fitness of Comp-19 treated CD8^+ T cells in vitro, we, next, sought to determine their antitumor potential upon adoptive transfer into mice bearingEL4-OVA tumors.
# EL-4.OVA tumor cells (1×10^6) or B16-F10 melanoma (0.5×10^6 cells) were injected subcutaneously into the left flank of 7-10 weeks old C57BL/6 mice. After 9 days of tumor establishment, ex vivo activated OT-1 T cells at 0.5×10^6 cells/mouse were adoptively transferred intravenously into tumor-bearing recipients.
# [5] = Lipophilicity assay (n-octanol / phosphate buffer); type: physicochemical; settings: pH 7.4, 1-octanol/10 mM sodium phosphate buffer, room temperature; criteria: <0 low, 0-1 moderate, >2 high lipophilicity
# Description: 1.56 g NaH2PO4O·2H2O was dissolved in 0.5 L water in a 1 L beaker. After adjusting pH to 7.4 using NaOH solution, the volume was made up to 1 L. Equal volumes of sodium phosphate buffer (10 mM, pH 7.4) and n-octanol were added to a separation funnel and mixed thoroughly by shaking and inverting the funnel several times. The two layers were allowed to separate for overnight and then dispensed in two separate glass bottles. 10 mM stock solution was prepared in 100% DMSO and stored at 4° C. 495 μL of organic phase (1-octanol) was added to each well of a 2 mL deep well plate, followed by 495 μL of buffer and 10 μL of test substance was added. The plate was incubated for 3 hr at room temperature on a plate shaker at 500 rpm. After incubation, the samples were allowed to equilibrate for 20 min and then centrifuged at 4000 rpm for 30 min for complete phase separation and analysed by LC-UV.
# Log D=Log (area of octanol/area of buffer)
# mTORC1 = mTORC1 activity in CD8+ T cells: pS6 and p4EBP1 levels (flow cytometry, western blot); type: cell-based
# Excerpt: Several transcription factors and signaling pathways coordinately support and regulate the metabolic shifting of naïve T cell after activation. Downstream of co-stimulation and PI3K-AKT signaling, mammalian target of Rapamycin (mTOR) kinase pathway helps in integrating multiple signals, plays a significant role for cell cycle entry and coordinates early anabolic changes that occur upon T cell activation mTOR complex 1 (mTORC1) promote aerobic glycolysis and support effector T cell proliferation, growth, and cytokine production. Translation repressor protein 4E-BP1 inhibits cap-dependent translation by binding to the translation initiation factor eIF4E. Phosphorylation of 4E-BP1 by mTORC1 disrupts this interaction and results in activation of cap-dependent translation. On the contrary, phosphorylation of S6 ribosomal protein correlates with an increase in translation of mRNA transcripts that contain an oligopyrimidine tract in their 5′ untranslated regions. Activation of mTORC1 increases protein translation via direct phosphorylation of 4E-BP1 and p70S6 kinase. Since Comp-19 was proposed as mTORC1 activator, next we sought to check expression level ofpS6 and p4EBP1 level inside CD8^+ T cells activated in presence/absence of Comp-19. […] CD8^+ T cells treated with Comp-19 (FIG. 3A-C).
# as §2
# pS6 Staining: Intracellular phospho ribosomal protein S6 (pS6) were stained using Transcription factor Phospho Buffer set. Single cell suspension was prepared and cells were washed with 1×PBS. […] Finally, cells were washed, dissolved in PBS and analysed by flow cytometry.
# Cell lysates from 4×10^6 cells per condition were prepared in RIPA buffer containing protease inhibitor cocktail. Protein concentrations were determined with a serial dilution standard curve of Bradford assay. […]
# CD8^+ T cells [6] = experiment: Glucose uptake assay (2NBDG) in activated CD8+ T cells; type: cell-based; settings: naïve T cells activated in presence of compound; 2NBDG (FIG. 2A)
# Excerpt: Distinct T cell states require specific metabolic programs compatible to their functional demands. The transition between various T cell states is accompanied by active rewiring of cellular metabolism and epigenetic landscape. Oxidative phosphorylation is the main biochemical pathway that drives metabolism of naïve T cell. Upon activation, naïve T cells rapidly reprogram their metabolic networks to comply with the demands of robust clonal expansion and epigenetic remodeling. So, TCR activation and co-stimulation initiate a set of signaling cascades that collectively license a T cell to exit quiescence. Stimulation of the TCR promotes signaling through the ERK/MAPK pathways and calcium flux, activation of the PI3K-AKT-mTOR axis which subsequently resulting in T cell activation. This conversion to an activated effector T cell is marked by enhanced glucose uptake, engagement of aerobic glycolysis, increased oxidative phosphorylation. So, we assessed glucose uptake level by activated CD8^+ T cells using fluorescent labeled deoxy-glucose analogue, 2NBDG. […]
# Glucose uptake assay: Glucose uptake by activated T cells was evaluated using fluorescent labeled deoxy-glucose analogue, 2NBDG. […]
# [7] = 10 μM, 72 hrs, compared to vehicle control/other small molecules treated group (FIG. 1A-B)
# [8] = OT1 T cells (0.5×10^6 cells/mouse) activated in presence of 10 μM ml^−1 compound
# [9] = inhibitory receptor (FIG. 4F,4G)
smiles,measurement,setting,value
"COc1ccc(-c2nc3c(NS(=O)(=O)c4ccc(C)cc4)ncnc3n2C)cc1 [Compound 19, N-(8-(4-methoxyphenyl)-9-methyl-9H-purin-6-yl)-4-methylbenzenesulfonamide]","remaining at 2 h, 1 µM",Plasma stability assay,85.8%
same,optimum dosage for inducing effector cytokine (IFNγ) production from CD8^+ T cells,[1],10 µM
same,EC50,"[1]; Homo sapiens, T-cell, normalized to vehicle (DMSO)",4.09 µM
same,IFN-γ production level from CD8^+ T cell,CD8^+ T cells [2],significant increase
same,TNF-α production level from CD8^+ T cell,CD8^+ T cells [2],significant increase
same,hepatic extraction ratio,[3],0.0077
same,IFN-γ production from CD8^+ T cells,CD8^+ T cells [4]; [7],highest
same,TNF-α production from CD8^+ T cells,CD8^+ T cells [4]; [7],highest
same,improving effector cytokine production from CD8^+ T cells (ranking among the small molecules),CD8^+ T cells [4]; 72 hrs activation,most promising
same,persistence of CD8+Vβ5.1+ OT1 T cells,EL4-OVA tumors; FIG. 4B,improved persistence
same,survival of tumor-bearing mice,EL4-OVA tumors; [8],markedly enhanced the survival
same,tumor growth control,EL4-OVA tumors; [8],could efficiently control tumor growth
same,CD38 expression on CD8+Vβ5.1+ OT1 T cells,EL4-OVA tumors; [9],reduced expression
same,PD1 expression on CD8+Vβ5.1+ OT1 T cells,EL4-OVA tumors; [9],reduced expression
same,TIM3 expression on CD8+Vβ5.1+ OT1 T cells,EL4-OVA tumors; [9],reduced expression
same,number of circulating CD8^+Vβ5.1^+ T cells,"EL4-OVA tumors; tumor-bearing host, vs mice that received DMSO treated cells",higher number
same,logD,[5],0.96
same,mTORC1 activation,mTORC1; conclusion from pS6 and 4EBP1 results in CD8^+ T cells,potent mTOR-Cl activator
same,4EBP1 (p4EBP1) expression,mTORC1; downstream substrate of mTORC1 (FIG. 3D),significant high expression
same,pS6 level inside CD8^+ T cells,mTORC1; flow cytometry and western blot (FIG. 3A-C),marked increase
same,glucose uptake,CD8^+ T cells [6],promoted glucose uptake
"CCc1ccc(S(=O)(=O)Nc2ncnc3c2nc(-c2ccc(OC)cc2)n3C)cc1 [Compound 22, 4-ethyl-N-(8-(4-methoxyphenyl)-9-methyl-9H-purin-6-yl)benzenesulfonamide]","remaining at 2 h, 1 µM",Plasma stability assay,3.9%
same,hepatic extraction ratio,[3],0.318
same,logD,[5],4.32
"COCCc1ccc(OCC(O)CNC(C)C)cc1 (centres unmarked) [Metroprolol, reference compound]",logD,[5],-0.34
"CC(C)[N+](C)(CCOC(=O)C1c2ccccc2Oc2ccccc21)C(C)C [Propantheline, reference compound]","remaining at 2 h, 1 µM",Plasma stability assay,0.33%
